Data from patent publication US20240158446A1, “CYCLIC COMPOUND HAVING SELECTIVE INHIBITORY ACTION ON KRAS OVER HRAS AND NRAS” (CHUGAI SEIYAKU KABUSHIKI KAISHA, priority 2021, published 2024).
Like-named read-outs stand apart in the source and are kept apart here. Where a SMILES comes first, the peptide text is derived from it. Bridges are numbered along the chain shown (N, C = ends). [ ]: non-standard residue; d: D form. The star is where a group is joined. hPhe(3,5-F2-4-CF3) = N[C@@H](CCc1cc(F)c(C(F)(F)F)c(F)c1)C(=O)O; hPhe(3-Cl-4-CF3) = N[C@@H](CCc1ccc(C(F)(F)F)c(Cl)c1)C(=O)O; NPrPhe(4-CF3) = CCCN[C@@H](Cc1ccc(C(F)(F)F)cc1)C(=O)O; NMePhe(4-Me) = CN[C@@H](Cc1ccc(C)cc1)C(=O)O; NMeGly(cPent) = CN[C@H](C(=O)O)C1CCCC1; Pro(4,4-F2) = O=C(O)[C@@H]1CC(F)(F)CN1; NMeD = CN[C@@H](CC(=O)O)C(=O)O; NMeL = CN[C@@H](CC(C)C)C(=O)O; Morpholide = C1CN(*)CCO1; NMeAib = CNC(C)(C)C(=O)O; Nle = CCCC[C@H](N)C(=O)O; Piperidide = C1CCN(*)CC1; Ac5c = NC1(C(=O)O)CCCC1; Aze = O=C(O)[C@@H]1CCN1; Ac4c = NC1(C(=O)O)CCC1; Sar = CNCC(=O)O

Tests used:
[1] = test system: human lung cancer strain NCI-H441;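 also: cell proliferation inhibition after four days measured by CellTiter-Glo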
[2] = target: GDP-bound NRAS wild-type protein (Homo sapiens, UniProt P01111); assay: Binding to NRAS by surface plasmon resonance (SPR), Single Cycle Kinetics; conditions: SPR, GDP-bound NRAS wild-type protein vs GDP-bound KRAS wild-type protein
Sequence of GDP-bound NRAS wild-type protein (P01111 whole entry): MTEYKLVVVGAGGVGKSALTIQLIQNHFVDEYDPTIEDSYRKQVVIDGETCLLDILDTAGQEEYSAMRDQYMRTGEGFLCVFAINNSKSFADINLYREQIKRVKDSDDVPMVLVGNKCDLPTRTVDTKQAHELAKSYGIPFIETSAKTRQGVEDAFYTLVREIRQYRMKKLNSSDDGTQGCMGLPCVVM

[3] = target: GDP-bound HRAS wild-type protein (Homo sapiens, UniProt P01112); assay: Binding to HRAS by surface plasmon resonance (SPR), Single Cycle Kinetics; conditions: SPR, GDP-bound HRAS wild-type protein vs GDP-bound KRAS wild-type protein
Sequence of GDP-bound HRAS wild-type protein (P01112 whole entry): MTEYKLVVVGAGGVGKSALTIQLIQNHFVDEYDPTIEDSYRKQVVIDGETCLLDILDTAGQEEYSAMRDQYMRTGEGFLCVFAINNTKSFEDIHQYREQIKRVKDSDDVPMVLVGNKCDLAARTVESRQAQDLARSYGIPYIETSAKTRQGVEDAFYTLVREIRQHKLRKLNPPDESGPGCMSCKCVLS

[4] = target: GDP-bound KRAS wild-type protein (Homo sapiens, UniProt P01116); assay: Binding to KRAS by surface plasmon resonance (SPR), Single Cycle Kinetics; conditions: GDP-bound KRAS wild-type protein, read-out: KRAS KD
Sequence of GDP-bound KRAS wild-type protein (P01116 whole entry): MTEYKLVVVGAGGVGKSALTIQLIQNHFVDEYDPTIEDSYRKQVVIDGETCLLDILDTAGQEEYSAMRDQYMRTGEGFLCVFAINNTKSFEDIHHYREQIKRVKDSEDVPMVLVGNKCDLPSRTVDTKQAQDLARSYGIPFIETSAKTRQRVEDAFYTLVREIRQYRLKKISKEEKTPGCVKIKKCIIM

[5] = read-out: NCI-H441 IC50, NCI-H441 cells, four days, CellTiter-Glo
[6] = SPR Single Cycle Kinetics, 1:1 binding model

Row | Kd [4, 6] | Kd ([4]; SPR, Single Cycle Kinetics) | Compound | NRAS/KRAS (ratio of KD value for NRAS to KD value for KRAS) [2] | HRAS/KRAS (ratio of KD value for HRAS to KD value for KRAS) [3] | further results
1 |  |  | CCO[C@@H]1C[C@H]2C(=O)NC3(CCC3)C(=O)N(C)[C@@H](C(CC)CC)C(=O)N(C)[C@H](C(=O)N3CCCCC3)CC(=O)N(C)[C@H]3CCC/C=C/c4ccc(cc4)C[C@@H](C(=O)N(C)CC(=O)N[C@@H](CCc4ccc(Cl)c(Cl)c4)C(=O)N2C1)N1CC/C=C\C[C@@H](C1=O)N(C)C(=O)CN(C1CC1)C(=O)[C@H]([C@@H](C)CC)NC3=O [PP3039] |  |  | IC50 [1, 5]: 18 nM
2 |  |  | CCO[C@@H]1C[C@H]2C(=O)NC3(CCC3)C(=O)N(C)[C@@H](C3CCCC3)C(=O)N(C)[C@H](C(=O)N3CCCCC3)CC(=O)N(C)[C@H]3CCC/C=C/c4ccc(cc4)C[C@@H](C(=O)N(C)CC(=O)N[C@@H](CCc4ccc(Cl)c(Cl)c4)C(=O)N2C1)N1CC/C=C\C[C@@H](C1=O)N(C)C(=O)CN(C1CC1)C(=O)[C@H]([C@@H](C)CC)NC3=O [PP2958] |  |  | IC50 [1, 5]: 19.5 nM
3 |  |  | CCC[C@H]1C(=O)N[C@@H]([C@@H](C)CC)C(=O)N(C2CC2)CC(=O)N(C)[C@H]2C/C=C\CCN(C2=O)[C@@H](Cc2ccc(C)cc2)C(=O)N(C)CC(=O)N[C@@H](CCc2ccc(C(F)(F)F)c(OC)c2)C(=O)N2C[C@H](OCC)C[C@H]2C(=O)N(C)C2(CCC2)C(=O)N(C)[C@@H](C2CCCC2)C(=O)N(C)[C@H](C(=O)N2CCCCC2)CC(=O)N1C [PP3096, (2S,8S,12R,14S,20S,23S,27S,30S,36S,38Z)-20-cyclopentyl-32-cyclopropyl-12-ethoxy-8-[2-[3-methoxy-4-(trifluoromethyl)phenyl]ethyl]-4,16,19,22,26,35-hexamethyl-30-[(1S)-1-methylpropyl]-23-(piperidine-1-carbonyl)-27-propyl-2-(p-tolylmethyl)spiro[1,4,7,10,16,19,2226293235-undecazatricyclo[34.5.1.0^10,14]dotetracont-38-ene-17,1′-cyclobutane]-3,6,9,15,18,21,25,28,31,34,42-undecone] |  |  | IC50 ([1]; read-out: NCI-H441 cell proliferation inhibitory activity, 50% proliferation inhibitory concentration (IC50 value), NCI-H441, four days, CellTiter-Glo): 35.8 nM
4 |  |  | CCO[C@@H]1C[C@H]2C(=O)NC3(CC(C)(C)C3)C(=O)N(C)[C@@H](C3CCCC3)C(=O)N(C)[C@H](C(=O)N(C)C)CC(=O)N(C)[C@@H](CC(C)C)C(=O)N[C@@H]([C@@H](C)CC)C(=O)N(C)CC(=O)N(C)[C@H]3C/C=C\CCN(C3=O)[C@@H](Cc3ccc(CC)cc3)C(=O)N(C)CC(=O)N[C@@H](CCc3ccc(C(F)(F)F)c(OC)c3)C(=O)N2C1 [PP2687, (2S,8S,12R,14S,20S,23S,27S,30S,36S,38Z)-20-cyclopentyl-12-ethoxy-2-[(4-ethylphenyl)methyl]-27-isobutyl-8-[2-[3-methoxy-4-(trifluoromethyl)phenyl]ethyl]-N,N,3′,3′,4,19,22,26,32,35-decamethyl-30-[(1S)-1-methylpropyl]-3,6,9,15,18,21,25,28,31,34,42-undecaoxo-spiro[1,4,7,10,16,19,22,26,29,32,35-undecazatricyclo[34.5.1.0^10,14]dotetracont-38-ene-17,1′-cyclobutane]-23-carboxamide] |  |  | IC50 [1]: 2.9 nM
5 |  |  | CCOC1CC2C(=O)NC3(CCC3)C(=O)N(C)C(C(C)CC)C(=O)N(C)[C@H](C(=O)N3CCOCC3)CC(=O)N(C)[C@@H](CC(C)C)C(=O)N[C@@H]([C@@H](C)CC)C(=O)N(C)CC(=O)N(C)[C@H]3CCCCN(C3=O)[C@@H](Cc3ccc(C(F)(F)F)cc3)C(=O)N(C)CC(=O)N[C@@H](CCc3cc(F)c(C(F)(F)F)c(F)c3)C(=O)N2C1 (some centres unmarked) [PP0812] |  |  | IC50 [1]: 17.9 nM
6 | 1 nM |  | CCCN1C(=O)CN(C)C(=O)CN(C)C(=O)[C@H]([C@@H](C)CC)NC(=O)[C@H](CC(C)C)N(C)C(=O)C[C@@H](C(=O)N2CCOCC2)NC(=O)[C@H](C2CCCC2)N(C)C(=O)C2(CCCC2)NC(=O)[C@@H]2CC(F)(F)CN2C(=O)[C@H](CCc2ccc(C(F)(F)F)c(Cl)c2)NC(=O)CN(C)C(=O)[C@@H]1Cc1ccc(C(F)(F)F)cc1 [PP0321] ([NMeL]I[Sar][Sar][NPrPhe(4-CF3)][Sar][hPhe(3-Cl-4-CF3)][Pro(4,4-F2)][Ac5c][NMeGly(cPent)]D-Morpholide; lactam N-11) | B (a compound having 3 or more and less than 10 is denoted as B) | B (a compound having 3 or more and less than 10 is denoted as B) | 
7 | 1.6 nM |  | CCCN1C(=O)CN(C)C(=O)CNC(=O)[C@H]([C@@H](C)CC)NC(=O)[C@H](CC(C)C)N(C)C(=O)C[C@@H](C(=O)N2CCOCC2)NC(=O)[C@H](C2CCCC2)N(C)C(=O)C2(CCC2)NC(=O)[C@@H]2CC(F)(F)CN2C(=O)[C@H](CCc2ccc(C(F)(F)F)c(Cl)c2)NC(=O)CN(C)C(=O)[C@@H]1Cc1ccc(C(F)(F)F)cc1 [PP0328] ([NMeL]IG[Sar][NPrPhe(4-CF3)][Sar][hPhe(3-Cl-4-CF3)][Pro(4,4-F2)][Ac4c][NMeGly(cPent)]D-Morpholide; lactam N-11) | B (a compound having 3 or more and less than 10 is denoted as B) | B (a compound having 3 or more and less than 10 is denoted as B) | 
8 |  | 0.21 nM | CCO[C@@H]1C[C@H]2C(=O)NC3(CCC3)C(=O)N(C)[C@@H](C3CCCC3)C(=O)N(C)[C@H](C(=O)N3CCOCC3)CC(=O)N(C)[C@@H](CC(C)C)C(=O)N[C@@H]([C@@H](C)CC)C(=O)N(C)CC(=O)N(C)[C@H]3CC=CCN(C3=O)[C@@H](Cc3ccc(C(F)(F)F)cc3)C(=O)N(C)CC(=O)N[C@@H](CCc3cc(F)c(C(F)(F)F)c(F)c3)C(=O)N2C1 [PP0832] | C (A compound having a KD ratio of 0.1 or more and less than 3 is denoted as C) | C (A compound having a KD ratio of 0.1 or more and less than 3 is denoted as C) | 
9 |  | 7.7 nM | CC[C@H](C)[C@@H]1NC(=O)[C@H](CC(C)C)N(C)C(=O)C[C@@H](C(=O)N(C)C)N(CCC2CCCC2)C(=O)[C@H](C2CCCC2)N(C)C(=O)C2(CCC2)NC(=O)[C@@H]2CC(F)(F)CN2C(=O)[C@H](CCc2ccc(C(F)(F)F)c(Cl)c2)NC(=O)CN(C)C(=O)[C@H](Cc2ccc(F)cc2)N2CCCCC[C@@H](C2=O)N(C)C(=O)CN(C)C1=O [PP0977] | B (a compound having 3 or more and less than 10 is denoted as B) | A (a compound having 10 or more and less than 20 is denoted as A) | 
10 |  | 0.054 nM | C#CC[C@H]1C(=O)N[C@@H]([C@@H](C)CC)C(=O)N(C)CC(=O)N(C)[C@H]2C/C=C\CCN(C2=O)[C@@H](Cc2ccc(C(F)(F)F)cc2)C(=O)N(C)CC(=O)N[C@@H](CCc2cc(F)c(C(F)(F)F)c(F)c2)C(=O)N2C[C@H](OCC)C[C@H]2C(=O)NC2(CCC2)C(=O)N(C)[C@@H](C2CCCC2)C(=O)N(C)[C@H](C(=O)N(C)C)CC(=O)N1C [PP1115, (2S,8S,12R,14S,20S,23S,27S,30S,36S,38Z)-20-cyclopentyl-8-[2-[3,5-difluoro-4-(trifluoromethyl)phenyl]ethyl]-12-ethoxy-N,N,4,19,22,26,32,35-octamethyl-30-[(1S)-1-methylpropyl]-3,6,9,15,18,21,25,28,31,34,42-undecaoxo-27-prop-2-ynyl-2-[[4-(trifluoromethyl)phenyl]methyl]spiro[1,4,7,10,16,19,22,26,29,32,35-undecazatricyclo[34.5.1.0^10,14]dotetracont-38-ene-17,1′-cyclobutane]-23-carboxamide] | A (a compound having 10 or more and less than 20 is denoted as A) | A (a compound having 10 or more and less than 20 is denoted as A) | 
11 | 0.12 nM |  | CCCN1C(=O)[C@@H]2CCN2C(=O)CN(C)C(=O)[C@H]([C@@H](C)CC)NC(=O)[C@H](CC(C)C)N(C)C(=O)C[C@@H](C(=O)N2CCOCC2)N(C)C(=O)[C@H](C2CCCC2)N(C)C(=O)C2(CCCC2)NC(=O)[C@@H]2CCCN2C(=O)[C@H](CCc2cc(F)c(C(F)(F)F)c(F)c2)NC(=O)CN(C)C(=O)[C@@H]1Cc1ccc(C(F)(F)F)cc1 [PP0789] ([NMeL]I[Sar][Aze][NPrPhe(4-CF3)][Sar][hPhe(3,5-F2-4-CF3)]P[Ac5c][NMeGly(cPent)][NMeD]-Morpholide; lactam N-11) |  |  | NRAS/KRAS (ratio of KD value with respect to NRAS to KD value with respect to KRAS) [2]: C (A compound having a KD ratio of 0.1 or more and less than 3 is denoted as C); HRAS/KRAS (ratio of KD value with respect to HRAS to KD value with respect to KRAS) [3]: B (a compound having 3 or more and less than 10 is denoted as B)
12 |  | 0.6 nM | CCO[C@@H]1C[C@H]2C(=O)NC3(CC=CC3)C(=O)N(C)[C@@H](C3CCCC3)C(=O)N(C)[C@H](C(=O)N3CCOCC3)CC(=O)N(C)[C@@H](COC)C(=O)N[C@@H]([C@@H](C)CC)C(=O)N(C)CC(=O)N(C)[C@H]3CCCCCN(C3=O)[C@@H](Cc3ccc(C(F)(F)F)cc3)C(=O)N(C)CC(=O)N[C@@H](CCc3cc(F)c(C(F)(F)F)c(F)c3)C(=O)N2C1 [PP0842] | B (a compound having 3 or more and less than 10 is denoted as B) | B (a compound having 3 or more and less than 10 is denoted as B) | 

Row | Compound | Kd [4, 6] | Kd ([4]; SPR, Single Cycle Kinetics) | NRAS/KRAS (ratio of KD value for NRAS to KD value for KRAS) [2] | HRAS/KRAS (ratio of KD value for HRAS to KD value for KRAS) [3] | further results
13 | CCCC[C@@H]1NC(=O)[C@H](CCc2ccc(C(F)(F)F)c(Cl)c2)NC(=O)CN(C)C(=O)[C@H](Cc2ccc(C)cc2)N(C)C(=O)CN(C)C(=O)CN(C)C(=O)[C@H]([C@@H](C)CC)NC(=O)[C@H](CC(C)C)N(C)C(=O)C[C@@H](C(=O)N2CCCCC2)N(C)C(=O)[C@H](CC(C)C)NC(=O)C(C)(C)N(C)C1=O [PP0049] ([NMeL]I[Sar][Sar][NMePhe(4-Me)][Sar][hPhe(3-Cl-4-CF3)][Nle][NMeAib]L[NMeD]-Piperidide; lactam N-11) | 6.3 nM |  | C (A compound having a KD ratio of 0.1 or more and less than 3 is denoted as C) | C (A compound having a KD ratio of 0.1 or more and less than 3 is denoted as C) | 
